The source of these data is ChEMBL document CHEMBL1131315, “Synthesis and anticonvulsant activity of 2(3H)-benzoxazolone and 2(3H)-benzothiazolone derivatives” (J Med Chem, 1998).

In data set [1] the test system is Mus musculus. Briefly: The compound was determined for the dose (mg/kg) by rotarod test at the time of peak neurotoxic effect in mice on ip administration. The format is functional. A general note: The rotarod test checks motor coordination on a turning rod.
Data set [2] is described as follows: The compound was tested for time of peak effect (TPE) in hours for its toxicity in mice on ip administration. The format is organism-based. Conditions: mouse, in vivo.
Data set [3] relates to Mus musculus. The experiment in a line: Time of peak effect in mice following i.p. administration. The format is functional.
In the next data set the target is Sigma 2 receptor. Briefly: Affinity on sigma 2 receptor using [3H]- DTG as radioligand.
For data set [4], the system named is Mus musculus. The experiment in a line: Anticonvulsant activity in subcutaneous pentylenetetrazole seizure test for 30 min in mice; No activity/toxicity at 300 mg/kg. The format is functional, organism-based. Set-up: dose 300 mg/kg.
For data set [5], the target named is Sigma non-opioid intracellular receptor 1 (Homo sapiens) (UniProt Q99720). The experiment in a line: Ratio between the Ki(nM)values of sigma-2 and sigma-1. The format is functional.
A short description of data set [6]: The compound was tested for neurologic toxicity (rotarod) test for 4 hours in mice; active at 100 mg/kg. Type of data set: organism-based. More on the design: dose 100 mg/kg. Conditions: mouse, in vivo.
In data set [7] the test system is Mus musculus. The experiment in a line: Anticonvulsant activity in Maximal electroshock seizure test at 100 mg/kg i.p. in mice. The format is functional, organism-based. More on the design: dose 100 mg/kg. A general note: In the maximal electroshock model the usual endpoint is tonic extension of the hind limbs.
For data set [8], the system named is Mus musculus. The experiment in a line: The compound was tested to inhibit 50% of induced maximal electroshock seizure in mice on ip administration. The format is functional.
For data set [9], the system named is Mus musculus. The experiment in a line: The compound was tested for anticonvulsant activity in Maximal electroshock seizure test (MES) for 4 hr in mice(ip); active at 300 mg/kg. Set-up: dose 300 mg/kg. Type of data set: functional, organism-based.
In data set [10] the test system is Mus musculus. The experiment in a line: Inhibition of s.c. pentylenetetrazole induced seizure in mice following i.p. administration. The format is functional.
A short description of data set [11]: The compound was tested for neurologic toxicity (rotarod) test for 30 min in mice; active at 300 mg/kg. As to conditions: mouse, in vivo, 0.5 h. Set-up: dose 300 mg/kg. Type of data set: organism-based.
Data set [12] concerns Mus musculus. Briefly: The anticonvulsant activity in subcutaneous pentylenetetrazole seizure test (sc Met) for 4 hr in mice; no activity or no toxicity at 300 mg/kg. Type of data set: functional, organism-based. More on the design: dose 300 mg/kg.
A short description of data set [13]: The compound was tested for neurologic toxicity (rotarod) test for 30 min in mice; active at 100 mg/kg. More on the design: dose 100 mg/kg. Type of data set: organism-based. Conditions: mouse, in vivo, 0.5 h.
The nature of data set [14]: The compound was tested for time of peak effect (TPE) in hours for its activity in mice on ip administration. The format is ADME, organism-based. As to conditions: mouse, in vivo.
Data set [15] is described as follows: The compound was tested for neurologic toxicity (rotarod) test for 4 hours in mice; active at 300 mg/kg. Type of data set: organism-based. Set-up: dose 300 mg/kg. Conditions: mouse, in vivo.
In data set [16] the test system is Rattus norvegicus. The experiment in a line: The compound was tested for the effective oral dose to inhibit 50% of the anticonvulsant in rats.(Value in parenthesis indicate 95% confidence limits). The format is functional.
In data set [17] the test system is Rattus norvegicus. The experiment in a line: The compound was tested per os dose of 30 mg/kg for 2 hours for rotarod toxicity; 0/4. Type of data set: functional.
The subject of data set [18] is Rattus norvegicus. Briefly: The compound was tested per os dose of 30 mg/kg for 4 hours for rotarod toxicity; 0/4. The format is functional.
Data set [19] concerns Mus musculus. The experiment in a line: The compound was tested for anticonvulsant activity in subcutaneous pentylenetetrazole seizure test (sc Met) for 30 min in mice; active at 100 mg/kg. Type of data set: functional, organism-based. More on the design: dose 100 mg/kg.
Data set [20] concerns Rattus norvegicus. Briefly: The compound was tested per os dose of 30 mg/kg for 4 hours for maximal electroshock test on rats; MES= 0/4. Type of data set: functional.
Data set [21] has as its system Mus musculus. Briefly: The compound was determined for the dose (mg/kg) by rotarod test at the time of peak neurotoxic effect in mice on ip administration. The format is functional.
Data set [22] concerns Rattus norvegicus. Briefly: The compound was tested per os dose of 30 mg/kg for 0.5 hours for rotarod toxicity; 0/4. Type of data set: functional.
Data set [23] has as its system Rattus norvegicus. The experiment in a line: The compound was tested per os dose of 30 mg/kg for 0.25 hours for maximal electroshock test on rats; MES= 4/4. The format is functional.
The subject of data set [24] is Rattus norvegicus. Briefly: The compound was tested per os dose of 30 mg/kg for 2 hours for maximal electroshock test on rats; MES= 0/4. Type of data set: functional.
A short description of data set [25]: Protective index value is the ratio between ED50 and TD50. The format is functional.
Data set [26] relates to Rattus norvegicus. The experiment in a line: The compound was tested per os dose of 30 mg/kg for 1 hour for maximal electroshock test on rats; MES= 1/4. The format is functional.
The test system of data set [27] is Rattus norvegicus. The experiment in a line: The compound was tested per os dose of 30 mg/kg for 1 hour for rotarod toxicity; 0/4. The format is functional.
Data set [28] concerns Mus musculus. Briefly: The compound was tested to inhibit 50% of induced maximal electroshock seizure in mice on ip administration. Type of data set: functional.
Data set [29] can be described thus: The compound was tested for the toxic dose on oral administration. (Value in parenthesis indicate 95% confidence limits). The format is ADME. Conditions: rat.
Data set [30] relates to Rattus norvegicus. The experiment in a line: The compound was tested per os dose of 30 mg/kg for 0.5 hours for maximal electroshock test on rats; MES= 2/4. The format is functional.
Data set [31] deals with Rattus norvegicus. Briefly: The compound was tested per os dose of 30 mg/kg for 0.25 hours for rotarod toxicity; 0/4. The format is functional.

Each structure is given as a SMILES string. Activity calls are given as the source filed them. No cut-off for these calls is given here.

Chain of Sigma non-opioid intracellular receptor 1 (Homo sapiens) (Q99720 whole entry): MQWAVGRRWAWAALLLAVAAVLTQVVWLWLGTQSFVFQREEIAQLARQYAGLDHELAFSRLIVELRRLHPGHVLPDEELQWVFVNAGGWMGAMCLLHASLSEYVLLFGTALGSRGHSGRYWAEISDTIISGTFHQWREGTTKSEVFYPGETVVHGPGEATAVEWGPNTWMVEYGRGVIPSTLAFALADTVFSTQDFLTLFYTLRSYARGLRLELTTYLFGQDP

A word on the TD50: it is the 50% point of the dose-response relation for the toxic effect studied. The term Ki denotes a dissociation constant, usually derived from enzyme kinetics or from competition with a known ligand. A low value points to tighter binding. The term ED50 denotes the dose that gives a 50% effect, or the effect in half of the subjects. The compound `O=C(c1ccccc1)c1ccc2c(c1)sc(=O)n2CCN1CCCC1` had a TD50 in the data set with Mus musculus [1] of 170 mg/kg. Moreover, in data set [2], the Toxicity was found to be 0.25 h. In addition, in the data set on Mus musculus [3], the Activity turned out to be 0.25 h. Moreover, at Sigma 2 receptor, affinity was put at a Ki of 225 nM. The scMet result with Mus musculus [4] and in the data set with Mus musculus [12] was “No activity or no toxicity at 300 mg/kg” each time. Besides, in data set [5], the Ratio is 4. The Rotarod toxicity entry in data set [6] and in [11] was “active at 100 mg/kg” in each case. For the same compound, the MES result with Mus musculus [7] and with Mus musculus [9] was “active at 300 mg/kg” in each case. In addition, the ED50 in the data set with Mus musculus [8] was 42.5 mg/kg; in the data set on Mus musculus [10] it was over 210 mg/kg.

On to `Cn1c(=O)oc2ccccc21`, for which, in data set [2], the Toxicity stood at 0.25 h. For the same compound, the Rotarod toxicity entry in data set [13] and in [15] was “active at 100 mg/kg” in each case. The compound further returned an Activity in data set [14] of 0.25 h. Moreover, the ED50 is 30.6 mg/kg with Rattus norvegicus [16], 50.2 mg/kg in the data set on Mus musculus [28] and 132 mg/kg in the data set with Mus musculus [10]. Moreover, the “No. of animals exhibiting toxicity / Number of animals tested” value with Rattus norvegicus [17], in the data set on Rattus norvegicus [18], in the data set on Rattus norvegicus [22], in the data set with Rattus norvegicus [27] and in the data set with Rattus norvegicus [31] was 0 throughout. Moreover, the scMet entry in the data set on Mus musculus [19] and in the data set on Mus musculus [12] was “active at 100 mg/kg” each time. For the same compound, the Protected/Tested stood at 0 with Rattus norvegicus [20]; 4 with Rattus norvegicus [23]; 0 with Rattus norvegicus [24]; 1 in the data set on Rattus norvegicus [26]; 2 in the data set on Rattus norvegicus [30]. The TD50 was 113 mg/kg in the data set on Mus musculus [21] and over 500 mg/kg in data set [29]. Besides, in data set [25], the PI was 16.4. Also, the MES entry with Mus musculus [7] and in the data set on Mus musculus [9] was “active at 300 mg/kg” in each case.
